Each molecule was assayed against Delta-5-Desaturase (D5D) (Homo sapiens (Human), UniProt O60427) (assay: In vitro measurement of Delta-5-Desaturase inhibitory activity using DGLA-CoA and Arachidonyl-CoA mass spectrometric assays). Conditions: membrane preparations of D5D-overexpressing HEK293 6E cells; averaged over at least two independent runs.
Type: biochemical
Experimental: In vitro Measurement of Delta-5-Desaturase Inhibitory Activity using DGLA-CoA and Arachidonyl-CoA Mass Spectrometric Assays
Membrane preparations of D5D-overexpressing HEK293 6E cells were prepared in which the total protein concentration was 5.6 mg/mL. Stock D5D membrane preparations were diluted in D5D assay buffer (25 mM 2-amino-2-(hydroxymethyl)-1,3-propanediol, pH 7.5 containing 10 mM MgCl2, 1 mM octyl glucoside (SigmaAldrich 0-8001), 1 mM tris(2-carboxyethyl)phosphine hydrochloride (SigmaAldrich 646547)) to a final D5D membrane concentration of 10 μg/mL in an assay plate containing serially diluted test compounds. To 15 μL of this D5D preparation was added 15 μL of a substrate solution (0.25 mM NADH (nicotinamide adenine dinucleotide, Roche Diag. 10107735001), 0.25 mM adenosine triphosphate (SigmaAldrich A-3377), 0.05 mM coenzyme A hydrate (SigmaAldrich C-4282), and 0.01 mM DGLA (dihomo-g-linolenic acid, Sigma E-4504) in the same D5D assay buffer. After one-hour incubation at ambient temperature acetonitrile (30 μL) was added to quench the reaction and plates were centrifuged for 10 min @3,000 rpm. Mass spectrometric analysis involved a Rapidfire 360 SPE system coupled to an ABSciex API4000 Triple Quadrupole mass spectrometer using a C18 SPE cartridge (G9203-80105) with ionization in negative mode (solvent A=100% water; solvent B=100% acetonitrile, each solvent containing 5 mM ammonium acetate). DGLA-CoA and Arachidonyl-CoA were detected by multiple reaction monitoring (MRM) of the doubly charged parent ions at m/z 526.6 and 525.6, respectively.
Sx is value from unknown sample, So is value from DMSO alone and Sc is value from no enzyme well. For CRC analysis, the % of inhibitions were analyzed with 4 Parameter Logistic Model or Sigmoidal Dose-Response Model using XLfit (IDBS, Guilford, UK). The potency of the test item was expressed as IC50 nM, corresponding to the test item concentration able to inhibit the 50% of the enzyme maximal response. IC50 values were averaged values determined by at least two independent runs.
This assay may be used to test any of the compounds described herein to assess and characterize a compound's ability to inhibit D5D.

Delta-5-Desaturase (D5D), sequence (O60427 whole entry, species assumed): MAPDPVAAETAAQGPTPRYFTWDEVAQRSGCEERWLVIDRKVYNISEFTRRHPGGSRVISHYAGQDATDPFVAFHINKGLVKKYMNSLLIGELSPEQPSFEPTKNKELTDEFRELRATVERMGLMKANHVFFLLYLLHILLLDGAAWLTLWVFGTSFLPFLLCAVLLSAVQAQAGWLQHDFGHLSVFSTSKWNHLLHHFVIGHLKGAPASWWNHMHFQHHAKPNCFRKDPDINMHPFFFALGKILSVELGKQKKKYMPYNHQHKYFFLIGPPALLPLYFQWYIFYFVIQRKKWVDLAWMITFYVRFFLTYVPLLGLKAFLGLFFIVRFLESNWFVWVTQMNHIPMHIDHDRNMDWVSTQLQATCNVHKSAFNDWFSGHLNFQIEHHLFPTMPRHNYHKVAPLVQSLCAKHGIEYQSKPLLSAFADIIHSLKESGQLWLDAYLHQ

SMILES	IC50
O=c1ccn2c(=O)c(-c3cnn(CC(F)(F)C(F)(F)F)c3)c(C(F)(F)F)nc2n1CCl [Example 65, 1-(Chloromethyl)-7-[1-(2,2,3,3,3-pentafluoropropyl)-1H-pyrazol-4-yl]-8-(trifluoromethyl)-1H,2H,6H-pyrimido[1,2-a][1,3]diazine-2,6-dione]	90.5 nM
O=C(O)c1ccn2c(=O)c(-c3ccc(OCC(F)(F)F)cc3)c(C(F)(F)F)nc2c1 [Example 2-2, 4-oxo-3-(4-(2,2,2-trifluoroethoxy)phenyl)-2-(trifluoromethyl)-4H-pyrido[1,2-a]pyrimidine-8-carboxylic acid]	646 nM
COc1ccn2c(=O)c(-c3ccc(OCC(F)(F)F)c(F)c3)c(C(F)F)nc2c1 [Example 1-12, 2-(difluoromethyl)-3-(3-fluoro-4-(2,2,2-trifluoroethoxy)phenyl)-8-methoxy-4H-pyrido[1,2-a]pyrimidin-4-one]	9.9 nM
COc1ccn2c(=O)c(-c3ccc(OCC(F)(F)F)nc3F)c(C(F)(F)F)nc2c1 [Example 7-1, 3-(2-Fluoro-6-(2,2,2-trifluoroethoxy)-3-pyridinyl)-8-methoxy-2-(trifluoromethyl)-4H-pyrido[1,2-a]pyrimidin-4-one]	125 nM
COc1ccn2c(=O)c(-c3cnn(-c4ccc(C(F)(F)F)cc4)c3)c(C(F)(F)F)nc2c1 [Example 1-71, 8-methoxy-2-(trifluoromethyl)-3-(1-(4-(trifluoromethyl)phenyl)-1H-pyrazol-4-yl)-4H-pyrido[1,2-a]pyrimidin-4-one]	4880 nM
COc1cnn2c(=O)c(-c3cnn(CC(F)(F)C(F)(F)F)c3)c(C(F)(F)F)nc2c1 [Example 34, 8-Methoxy-3-[1-(2,2,3,3,3-pentafluoropropyl)-1H-pyrazol-4-yl]-2-(trifluoromethyl)-4H-pyrimido[1,2-b]pyridazin-4-one]	118 nM
COc1nc2nc(C(F)(F)F)c(-c3cnn(CC(F)(F)C(F)(F)F)c3)c(=O)n2cc1Cl [Example 66, 7-Chloro-8-methoxy-3-[1-(2,2,3,3,3-pentafluoropropyl)-1H-pyrazol-4-yl]-2-(trifluoromethyl)-4H-[1,3]diazino[1,2-a]pyrimidin-4-one]	111 nM
[2H]C([2H])([2H])Oc1ccn2c(=O)c(-c3cnn(CCC(F)(F)F)c3)c(C(F)(F)F)nc2c1 [Example 1-61, 8-(methyloxy-d3)-2-(trifluoromethyl)-3-(1-(3,3,3-trifluoropropyl)-1H-pyrazol-4-yl)-4H-pyrido[1,2-a]pyrimidin-4-one]	11.4 nM
COc1ccn2c(=O)c(-c3cnn(CC#N)c3)c(C(F)(F)F)nc2c1 [Example 1-26, (4-(8-methoxy-4-oxo-2-(trifluoromethyl)-4H-pyrido[1,2-a]pyrimidin-3-yl)-1H-pyrazol-1-yl)acetonitrile]	278 nM
CCCc1cc(-c2c(C(F)(F)F)nc3cc(OC)ccn3c2=O)no1 [Example 61, 8-Methoxy-3-(5-propyl-1,2-oxazol-3-yl)-2-(trifluoromethyl)-4H-pyrido[1,2-a]pyrimidin-4-one]	46.9 nM
COc1ccn2c(=O)c(-c3ccc(OC[C@H]4CC4(F)F)cc3)c(C(F)(F)F)nc2c1 [Example 1-83, 3-(4-(((1R)-2,2-Difluorocyclopropyl)methoxy)phenyl)-8-methoxy-2-(trifluoromethyl)-4H-pyrido[1,2-a]pyrimidin-4-one]	5.7 nM
CC(=O)c1ccn2c(=O)c(-c3ccc(OCC(F)(F)F)cc3)c(C(F)(F)F)nc2c1 [Example 1-25, 8-acetyl-3-(4-(2,2,2-trifluoroethoxy)phenyl)-2-(trifluoromethyl)-4H-pyrido[1,2-a]pyrimidin-4-one]	6.4 nM
O=c1c(-c2cnn(CC(F)(F)C(F)(F)F)c2)c(C(F)(F)F)nc2cc(N3CCC3)ccn12 [Example 1-88, 8-(1-azetidinyl)-3-(1-(2,2,3,3,3-pentafluoropropyl)-1H-pyrazol-4-yl)-2-(trifluoromethyl)-4H-pyrido[1,2-a]pyrimidin-4-one]	2350 nM
COc1ccn2c(=O)c(-c3cnn(CCCC(F)(F)F)c3)c(C(F)F)nc2c1 [Example 1-16, 2-(difluoromethyl)-8-methoxy-3-(1-(4,4,4-trifluorobutyl)-1H-pyrazol-4-yl)-4H-pyrido[1,2-a]pyrimidin-4-one]	383 nM
COc1nc2nc(C(F)(F)F)c(-c3cnn(CC(F)(F)C(F)(F)F)c3)c(=O)n2cc1F [Example 42, 7-Fluoro-8-methoxy-3-[1-(2,2,3,3,3-pentafluoropropyl)-1H-pyrazol-4-yl]-2-(trifluoromethyl)-4H-[1,3]diazino[1,2-a]pyrimidin-4-one]	168 nM
CCc1ccn2c(=O)c(-c3ccc(OCC(F)(F)F)cc3)c(C(F)(F)F)nc2c1 [Example 2-1, 8-Ethyl-3-(4-(2,2,2-trifluoroethoxy)phenyl)-2-(trifluoromethyl)-4H-pyrido[1,2-a]pyrimidin-4-one]	22.6 nM

Second part, the molecule after the results:

IC50	SMILES
159 nM	C[S@+]([O-])c1ccn2c(=O)c(-c3cnn(CC(F)(F)C(F)(F)F)c3)c(C(F)(F)F)nc2c1 [Example 15-5, 8-((S)-methylsulfinyl)-3-(1-(2,2,3,3,3-pentafluoropropyl)-1H-pyrazol-4-yl)-2-(trifluoromethyl)-4H-pyrido[1,2-a]pyrimidin-4-one]
> 67000 nM	Cc1ccc2nc(C(F)(F)F)c(-c3cnc(OCC(F)(F)F)nc3)c(=O)n2n1 [Example 39-36, 7-methyl-3-[2-(2,2,2-trifluoroethoxy)pyrimidin-5-yl]-2-(trifluoromethyl)-4H-pyrimido[1,2-b]pyridazin-4-one]
748 nM	COc1cnn2c(=O)c(-c3cnn(CC4CC(F)(F)C4)c3)c(C(F)(F)F)nc2c1 [Example 39-55, 3-{1-[(3,3-difluorocyclobutyl)methyl)-1H-pyrazol-4-yl}-8-methoxy-2-(trifluoromethyl)-4H-pyrimido[1,2-b]pyridazin-4-one]
685 nM	CCNC(=O)c1ccn2c(=O)c(-c3ccc(OCC(F)(F)F)cc3)c(C(F)(F)F)nc2c1 [Example 12-4, N-ethyl-4-oxo-3-(4-(2,2,2-trifluoroethoxy)phenyl)-2-(trifluoromethyl)-4H-pyrido[1,2-a]pyrimidine-8-carboxamide]
5 nM	COc1cc2nc(C(F)(F)F)c(-c3cnn(CC4CC4(F)F)c3)c(=O)n2cc1F (racemic) [Example 39-59, 3-{1-[(2,2-difluorocyclopropyl)methyl]-1H-pyrazol-4-yl}-7-fluoro-8-methoxy-2-(trifluoromethyl)-4H-pyrido[1,2-a]pyrimidin-4-one]
65.6 nM	Cc1cc2nc(C(F)(F)F)c(-c3cnn(CCC(F)(F)F)c3)c(=O)n2nc1C [Example 39-47, 7,8-dimethyl-2-(trifluoromethyl)-3-[1-(3,3,3-trifluoropropyl)-1H-pyrazol-4-yl]-4H-pyrimido[1,2-b]pyridazin-4-one]
185 nM	CC[S@@+]([O-])c1ccn2c(=O)c(-c3ccc(OCC(F)(F)F)cc3)c(C(F)(F)F)nc2c1 [Example 15-8, 8-((R)-ethylsulfinyl)-3-(4-(2,2,2-trifluoroethoxy)phenyl)-2-(trifluoromethyl)-4H-pyrido[1,2-a]pyrimidin-4-one]
120 nM	CNC(=O)c1ccn2c(=O)c(-c3ccc(OCC(F)(F)F)cc3)c(C(F)(F)F)nc2c1 [Example 12-1, N-Methyl-4-oxo-3-(4-(2,2,2-trifluoroethoxy)phenyl)-2-(trifluoromethyl)-4H-pyrido[1,2-a]pyrimidine-8-carboxamide]
74.2 nM	C[C@H](O)c1ccn2c(=O)c(-c3ccc(OCC(F)(F)F)cc3)c(C(F)(F)F)nc2c1 [Example 30-1, 8-((1S)-1-hydroxyethyl)-3-(4-(2,2,2-trifluoroethoxy)phenyl)-2-(trifluoromethyl)-4H-pyrido[1,2-a]pyrimidin-4-one]
1.1 nM	O=c1c(-c2cnn(CCC(F)(F)F)c2)c(C(F)(F)F)nc2ccc(F)cn12 [Example 39-27, 7-fluoro-2-(trifluoromethyl)-3-[1-(3,3,3-trifluoropropyl)-1H-pyrazol-4-yl]-4H-pyrido[1,2-a]pyrimidin-4-one]
11.4 nM	COc1ccn2c(=O)c(-c3cnn(CC4CC4(F)F)c3)c(C(F)(F)F)nc2c1 (racemic) [Example 39-42, 3-{1-[(2,2-difluorocyclopropyl)methyl]-1H-pyrazol-4-yl}-8-methoxy-2-(trifluoromethyl)-4H-pyrido[1,2-a]pyrimidin-4-one]
900 nM	O=c1ccn2c(=O)c(-c3ccc(OCC(F)(F)F)cc3)c(C(F)(F)F)nc2[nH]1 [Example 10-3, 7-(4-(2,2,2-trifluoroethoxy)phenyl)-8-(trifluoromethyl)-2H-pyrimido[1,2-a]pyrimidine-2,6(1H)-dione]
